Measurements from patent US20230203126A1, “A COMPOSITION COMPRISING S-ARRESTIN PEPTIDES” (WORG PHARMACEUTICALS (HANGZHOU) CO., LTD., priority 2019, published 2023).
No end group written: not given here.

Key:
[1] = system: S-Ag-induced cell activation (IFNy production of LN cells and splenocytes); test: Ex vivo tolerization experiment (DR2tg mice); type: in vivo
Protocol: FIG. 4: 9K1K alone induces tolerance towards S-Ag protein in DR2tg mice. Mice were injected subcutaneously in the flank with 0,1 µg/ml, 1 µg/ml and 10 µg/ml 9K1K on days -15, -13 and -11, followed by 3 injections of 100 µg/ml on days -8, -6 and -4 (escalating dose regime). On day 0, mice were immunized subcutaneously at the base of the tail with antigen/CFA. Mice were sacrificed 10 days after immunization to measure activation of LN cells and splenocytes upon S-Ag restimulation. IFNy concentration was measured in the culture supernatant as an indication of cell activation. Data represent mean ± SEM of the concentration of IFNy for the PBS-treated mice (black lines) and 9K1K-treated mice (grey lines). Two-way ANOVA was used to measure overall treatment effects on T cell activation. Dunnett’s multiple comparisons test was used and significant differences are indicated in the graphs (** p<0.01; **** p<0.0001). The % inhibition of IFNy production as compared to the control group is indicated in the graphs. (A) Tolerization against S-Ag in LN. IFNy production expressed as IFNy concentration (pg/ml). (B) Tolerization against S-Ag in spleen. IFNy production expressed as IFN-Y concentration (pg/ml). LN, lymph nodes. Data representative of 3 independent experiments.
FIG. 8: Treatment with peptide cocktail ATX975 reduces S-Ag-induced immune cell activation in DR2tg mice more efficiently than treatment with 9K1K alone. Mice were injected subcutaneously in the flank with 0.015 nmol, 0.15 nmol and 1.5 nmol of peptide on days -15, -13 and -11 respectively, followed by 3 injections of 15 nmol peptide on days -8, -6 and -4 (dose escalation schedule). For treatment with the cocktail (ATX975) containing 3 peptides, these doses were given per peptide (reaching a total top dose of 45 nmol peptide). On day 0, mice were immunized subcutaneously at the base of the tail with antigen/CFA. Mice were sacrificed 10 days after immunization to measure activation of splenocytes upon S-Ag restimulation. […] IFN-y production expressed as IFN-y concentration (pg/ml). […]

[2] = molecular target: HLA-DRA1*0101, DRB1*1501 (DR2) (Homo sapiens, UniProt P01903+P01911); test: DR2
Protocol: Table printed on a drawing sheet, Figure 9
The patent's description of the figure: FIG. 9: Diverse patterns of in vitro peptide-MHC II binding for peptides 9K1, 17JK and 15N3K. Binding of peptides 9K1, 17JK and 15N3K to recombinant HLA-DRA1*0101, DRB1*0101 (DR1), DRB1*1501 (DR2), DRB1*0301 (DR3), DRB1*0401 (DR4), DRB1*1101 (DR11), DRB1*0405 (DR4*05) and DRB1*0901 (DR9) was assessed in vitro. IC50 values (µM) are presented and colour-coded per HLA-DR molecule. Low values (green) indicate strong binding, high values (red) indicate low(er) binding.
FIG. 9 depicts IC50 (µM) values of peptides 9K1K, 17JK and 15N3K binding to the indicated HLA-DR molecules and competing with a known competitor peptide. Values should be compared only within each HLA-DR molecule. Low IC50 values (green) indicate the strongest binder per HLA-DR molecule. Highest values per HLA-DR molecule (red) are indicative of the lowest binder for that HLA-DR molecule. Intermediate values are indicated in orange. […]
First copying reader's note: The sheet prints no unit; per the patent description the values are IC50 (µM) for peptide binding to the named HLA-DR molecules, with cell shading coding relative binding strength per HLA-DR molecule.
Where the first naming reader finds the target: description_of_the_figure: recombinant HLA-DRA1*0101, DRB1*0101 (DR1), DRB1*1501 (DR2)

[3] = system: MHC II molecules on dendritic cells (CD11c+ cells); test: In vivo MHC class II loading assay (DR2tg mice); design: species or system HLA-DR2-transgenic mice; details: 100 µg peptide s.c., spleen 2 h post injection, 72 h co-culture, vs PBS-injected control
Protocol: FIG. 1: Peptide 9K1K is correctly loaded on MHC class II in vivo. Response of peptide-specific CD4+ T cells towards peptide loaded in vivo on dendritic cells is shown. HLA-DR2-transgenic mice were injected subcutaneously with 100 µg of 9K1K peptide. 2 h post injection, spleens were dissected and CD11 c+ cells (dendritic cells) were isolated. These CD11c+ cells were co-cultured with peptide-specific CD4+ cells for 72 h at 37° C. IFNy was measured in the supernatant of these cultures to evaluate the response to peptide by the CD4+ T cells. (* p<0.05 Mann-Whitney U-test)
When 100 µg of peptide 9K1K was injected in DR2tg mice or when peptide 17JK or 15N3K was injected in DR3tg mice, these peptides could be detected on dendritic cells (CD11c+ cells) in the spleens of these mice 2 h post injection. Activation (IFNY production) of peptide-specific CD4+ T cells by the isolated CD11 c+ cells was used as a read-out. […]
DR3tg or DR2tg mice were injected with 100 µg of peptide in 100 µl PBS subcutaneously (s.c.) in the flank. […] After 72 hours, supernatant of these co-cultures was collected and CD4+ T cell activation was analysed by IFNy ELISA (R&D Systems, Abingdon, UK). In a parallel experiment, CD4+ T cell responses towards peptide added in vitro were assessed to make sure the T cells recognize the peptides presented by the CD11 c+ cells.

“KKKAFVEQVANVVLKKK-NH2 [9K1K, KKKAFVEQVANVVLKKK]” was tested, and the “reduction of S-Ag-induced cell activation (IFNy) in spleens” value ([1]; dose escalation to 15 nmol per peptide s.c., cocktail vs single peptide, vs control mice (FIG. 8)) was 51%, the “reduction of S-Ag-induced cell activation (IFNy) in lymph nodes” value ([1]; single peptide escalating dose s.c., vs PBS, 10 days after immunization (FIG. 4A)) was 77% and the “reduction of S-Ag-induced cell activation (IFNy) in spleen” value ([1]; single peptide escalating dose s.c., vs PBS, 10 days after immunization (FIG. 4B)) was 70%. The IC50 [2] was 520 nM and the “CD4+ T cell activation (IFNy) by CD11c+ cells isolated from spleen of injected mice” value [3] was “significant CD4+ T cell activation”.
